Source: US9073874B2, “Cyclic N,N′-diarylthioureas and N,N′-diarylureas-androgen receptor antagonists, anticancer agent, method for preparation and use thereof” (priority 2010, dated 2015)
Entries after “also recorded” stand apart in the source; their conditions may differ.

How the values were obtained:
[1] = target: T1, androgen receptors (Homo sapiens, UniProt P10275, T878A); experiment: cell-based; type: cell-based
T1 construct: host or cells: LNCaP
T1 sequence (P10275 1-920 T878A): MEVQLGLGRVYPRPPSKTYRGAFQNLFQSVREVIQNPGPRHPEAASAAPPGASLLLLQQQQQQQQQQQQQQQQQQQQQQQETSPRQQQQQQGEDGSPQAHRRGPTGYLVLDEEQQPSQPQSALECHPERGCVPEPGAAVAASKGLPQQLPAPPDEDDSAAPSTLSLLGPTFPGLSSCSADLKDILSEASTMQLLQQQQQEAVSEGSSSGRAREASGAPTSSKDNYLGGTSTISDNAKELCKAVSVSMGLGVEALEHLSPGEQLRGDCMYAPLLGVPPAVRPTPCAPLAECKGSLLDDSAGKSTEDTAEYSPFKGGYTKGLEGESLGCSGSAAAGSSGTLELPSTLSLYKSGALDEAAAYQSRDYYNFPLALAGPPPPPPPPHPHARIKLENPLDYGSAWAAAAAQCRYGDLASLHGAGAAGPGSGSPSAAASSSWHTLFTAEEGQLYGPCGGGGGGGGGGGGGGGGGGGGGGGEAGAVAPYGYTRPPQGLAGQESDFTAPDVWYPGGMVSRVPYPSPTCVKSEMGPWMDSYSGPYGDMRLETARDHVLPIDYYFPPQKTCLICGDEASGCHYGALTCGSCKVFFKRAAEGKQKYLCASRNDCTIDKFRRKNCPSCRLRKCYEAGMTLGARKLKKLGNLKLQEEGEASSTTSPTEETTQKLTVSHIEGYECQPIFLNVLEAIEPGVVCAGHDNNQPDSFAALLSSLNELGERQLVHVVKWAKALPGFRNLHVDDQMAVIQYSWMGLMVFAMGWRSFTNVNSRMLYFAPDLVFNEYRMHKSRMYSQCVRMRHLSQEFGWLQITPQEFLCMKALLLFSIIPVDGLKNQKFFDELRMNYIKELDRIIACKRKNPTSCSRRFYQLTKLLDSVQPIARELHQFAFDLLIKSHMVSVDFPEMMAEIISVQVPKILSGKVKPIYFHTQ
Protocol: The expression of PSA was measured in the culture medium 24 hours thereafter (FIG. 1). […] The LnCAP cells were cultured for a further 5 days and the number of viable cells was then calculated.
FIG. 1. Inhibition of DHT-stimulated PSA expression in LnCAP cells.
These cells are sensitive towards 5-a-dihydrotestosterone (DHT) and in the presence thereof produce cancer markers (PSA). […] Before the experiment, the cells were washed and suspended in the same medium, in which, however, a serum treated with charcoal for removal of hormone traces was used instead of calf serum. The cells (10 000 in total) were embedded into the wells of 96-well plates at 100 μl per well and left for 4 days in an incubator at 37° C. […] The cells were incubated for a further 5 days under the same conditions. Then, samples of the supracellular medium were taken and analyzed for PSA. The test was carried out according to the protocol recommended by the manufacturer of the kit for PSA measurement (Alpha Diagnostic International, USA). After wetting the wells containing PSA antibodies attached to their bottoms, 25 μl of test compounds and 100 μl of PSA antibodies pre-conjugated to horseradish peroxidase were added successively to each well. Following a 30-minute incubation at room temperature, the content of each well was removed, the wells were washed several times, and 100 μl of a peroxidase chromogenic substrate was then added to each well. […] Based on data about the dependence of DHT-related reduction of PSA synthesis on the concentration of test compounds, dose-response curves were plotted to determine IC50 values. Said values were used for calculating apparent inhibition constants (Ki) for compounds of general formula I according to Cheng-Prusoff equation. [Cheng, Y., Prusoff, W. H. “Relationship between the inhibition constant (Ki) and the concentration of inhibitor which causes 50 percent inhibition (IC50) of an enzymatic reaction”. Biochem Pharmacol.

[2] = test system: CYP 3A; experiment: CYP 3A induction assay; type: in vitro ADME
[3] = Distribution in plasma, brain and prostate after single IV administration in rats; type: in vivo; conditions: for concentration at 30 min / concentration at 120 min: rat, plasma; for concentration at 30 min / concentration at 120 min / Brain / Plasma / Prostate: Mean ± SD, n = 3
[4] = Maximum tolerated dose, peroral once a day for 5 days in CD1 male mice; type: in vivo
Protocol: The maximum tolerated doses (MTD) of novel antagonists (R)-1 and their analog Ia were determined in experiments on CD1 male mice at peroral administration once a day for 5 days in doses of 10, 30, and 100 mg/kg. The compound was dissolved in sterile water with addition of Tween 80. Sterile water with Tween 80 was given to control animals (Placebo group). Animals' body weight and mortality rate were estimated. Statistical comparison of groups was carried out according to a non-parametric ANOVA test using Statistica software.

[5] = test system: LnCAP-Z2 tumors; experiment: Prostate cancer xenograft model, SCID male mice bearing LnCAP-Z2 tumors; type: in vivo; conditions: analysis of individual tumors, 21 days oral
Protocol: SCID male mice bearing LnCAP-Z2 tumors (mean volume˜160-190 mm^3) were treated daily by oral gavage with vehicle or drugs for 21 days. Individual tumor volume change by the end of the study. Percentage of change in individual tumor volumes as compared to the start of treatment.
FIG. 6. […] SCID male mice bearing LnCAP-Z2 tumors (mean volume˜160-190 mm^3) treated daily by oral gavage with vehicle or drugs for 21 days. Individual tumor volume change by the end of the study. Percentage of change in individual tumor volumes compared to the start of treatment.
FIG. 7. […] SCID male mice bearing LnCAP-Z2 tumors (mean volume˜160-190 mm^3) treated daily by oral gavage with vehicle or drugs for 21 days. (A)—Tumor weight by the end of the study. Mean±SEM are presented. […] (B)—PSA expression by the end of the study. Plasma samples were collected 24 hours after the last drug administration. Mean±SEM are presented.
The antitumor efficacy of (R)-1 was tested in a xenograft model of prostate cancer (FIGS. 6 and 7). Male immunodeficient mice harboring LnCAP-Z2 tumors were treated orally for 21 days with either vehicle or (R)-1 at 20 and 50 mg/kg once daily and at 20 mg/kg twice daily. […] Twenty-four hours after last treatment, blood samples were collected from all animals and used for measuring PSA expression and drug concentration. In addition, the concentration of drugs and Ki67 expression were measured in tumor samples.

[6] = CD1 male mice, peroral, 100 mg/kg

## CNC(=O)c1ccc(N2C(=S)N(c3ccc(C#N)c(C(F)(F)F)c3)C(=O)C23CCOC3)cc1F (racemic) [compound 1, 4-[3-(4-Cyano-3-trifluoromethyl-phenyl)-4-oxo-2-thioxo-7-oxa-1,3-diaza-spiro[4.4]non-1-yl]-2-fluoro-N-methyl-benzamide]
[1]
  AR antagonistic activity (in words): comparable with that of Ia

## CNC(=O)c1ccc(N2C(=S)N(c3ccc(C#N)c(C(F)(F)F)c3)C(=O)[C@@]23CCOC3)cc1F [(S)-1]
[1]
  Ki: 0.215 µM

## CNC(=O)c1ccc(N2C(=S)N(c3cnc(C#N)c(C(F)(F)F)c3)C(=O)C23CCC3)cc1F [III]
[2]; Concentration 1 μM
  Positive control, % (CYP 3A induction): 16.3 ± 2.5%
[2]; Concentration 10 μM
  Positive control, % (CYP 3A induction): 102.7 ± 13.0%
[3]; single IV 1 mg/kg, 30 min
  concentration at 30 min: 251 ± 29 ng/mL
  Brain/Plasma: 0.96 ± 0.03
  Prostate/Plasma: 1.94 ± 0.24
  Brain: 241 ± 21 ng/g
  Plasma: 251 ± 29 ng/mL
  Prostate: 487 ± 73 ng/g
[3]; single IV 1 mg/kg, 120 min
  concentration at 120 min: 153 ± 10 ng/mL
  Brain/Plasma: 1.15 ± 0.27
  Prostate/Plasma: 3.15 ± 0.94
  Brain: 176 ± 31 ng/g
  Plasma: 153 ± 10 ng/mL
  Prostate: 482 ± 120 ng/g

## CNC(=O)c1ccc(N2C(=S)N(c3ccc(C#N)c(C(F)(F)F)c3)C(=O)C2(C)C)cc1F [Ia, MDV3100]
[2]; Concentration 1 μM
  Positive control, % (CYP 3A induction): 10.0 ± 2.0%
[2]; Concentration 10 μM
  Positive control, % (CYP 3A induction): 73.3 ± 6.8%
[3]; single IV 2 mg/kg, 30 min
  concentration at 30 min: 263 ± 19 ng/mL
  Brain: 164 ± 19 ng/g
  Plasma: 263 ± 19 ng/mL
  Prostate: 102 ± 4 ng/g
[3]; single IV 2 mg/kg, 120 min
  concentration at 120 min: 377 ± 153 ng/mL
  Brain: 152 ± 31 ng/g
  Plasma: 377 ± 153 ng/mL
  Prostate: 124 ± 27 ng/g
[4]; CD1, mouse, in vivo, oral, male CD-1 mice, peroral once a day for 5 days
  MTD at 5 days: ~30 mg/kg
[4]; CD1 male mice, 100 mg/kg, 5th day
  p, body weight versus Placebo group: 0.002
[4]; [6]
  body weight versus control animals (Placebo group): statistically differed
  mortality: One animal died
[4]; CD1 male mice, peroral, doses below 100 mg/kg (10 and 30 mg/kg)
  mortality: did not lead to death; also recorded: did not cause death
[4]; male CD-1 mice, peroral once a day for 5 days
  maximum tolerated dose (MTD): about 30 mg/kg
[5]
  effect on individual tumors (in words): stimulate tumor regression
